For assay [1], the target named is T1, OX1 (Homo sapiens, UniProt O43613).
T1 sequence (O43613 1-425): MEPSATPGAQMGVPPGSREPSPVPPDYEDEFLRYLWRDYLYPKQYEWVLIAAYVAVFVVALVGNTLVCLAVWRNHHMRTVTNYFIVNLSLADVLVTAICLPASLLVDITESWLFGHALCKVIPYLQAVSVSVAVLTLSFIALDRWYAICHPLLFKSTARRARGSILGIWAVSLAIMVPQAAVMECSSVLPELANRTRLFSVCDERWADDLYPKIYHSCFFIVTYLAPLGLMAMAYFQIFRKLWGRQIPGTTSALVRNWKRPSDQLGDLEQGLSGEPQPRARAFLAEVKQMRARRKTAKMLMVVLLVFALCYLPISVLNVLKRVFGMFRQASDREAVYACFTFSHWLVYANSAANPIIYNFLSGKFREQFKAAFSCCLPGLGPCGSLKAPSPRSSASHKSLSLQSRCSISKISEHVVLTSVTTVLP
The experiment in a line: Measurement of orexin receptor-binding ability ([125I]-OX-A, cell membranes, OX1). Set-up: expressed in transfected cells; host or cells: CHO cells (membrane preparation).

The target of assay [2] is T2, OX2 (Homo sapiens, UniProt O43614).
T2 sequence (O43614 1-444): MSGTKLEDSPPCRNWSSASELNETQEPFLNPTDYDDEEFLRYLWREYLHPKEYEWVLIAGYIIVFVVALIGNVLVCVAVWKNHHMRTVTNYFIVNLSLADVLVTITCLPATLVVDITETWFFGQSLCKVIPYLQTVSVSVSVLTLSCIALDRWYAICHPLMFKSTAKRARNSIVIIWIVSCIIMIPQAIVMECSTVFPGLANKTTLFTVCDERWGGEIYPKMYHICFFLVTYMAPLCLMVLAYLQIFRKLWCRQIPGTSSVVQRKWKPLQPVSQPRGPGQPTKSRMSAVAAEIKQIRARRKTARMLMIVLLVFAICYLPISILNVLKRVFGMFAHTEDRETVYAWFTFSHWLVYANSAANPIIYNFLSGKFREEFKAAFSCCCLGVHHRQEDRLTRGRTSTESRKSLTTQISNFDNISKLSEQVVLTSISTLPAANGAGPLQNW
The experiment in a line: Measurement of orexin receptor-binding ability ([125I]-OX-A, cell membranes, OX2). Particulars: membranes of recombinant CHO cells expressing OX2, 0.2 nM [125I]-OX-A. Set-up: expressed in transfected cells; host or cells: CHO cells (membrane preparation).

The target in assay [3] is T1, OX1. The experiment in a line: Measurement of antagonism (PLAP assay), OX1. In kind it is cell-based. Set-up: expressed in transfected cells; host or cells: HEK-293 cells, expression vector pBabeCLIH. The procedure: (§1) 2. Measurement of Antagonism (PLAP Assay)
(§2) The antagonistic function of the compound of the present invention to prevent the activation of OX2 and OX1 by orexin-A (OX-A), which is a natural peptide agonist, was measured using a cell-based reporter assay. […] The cells were plated at a density of 10,000 cells/well onto a non-coated 96-well plate in Dulbecco's modified Eagle medium (Sigma Cat No. D6046:10% v/v heat-inactivated fetal bovine serum was contained). The cells were cultured at 37° C. overnight, so that they could adhere to the plate. On the following day, cells were incubated with a compound of the present invention dissolved in Dulbecco's modified Eagle medium (Sigma Cat No. A8806:0.1% w/v bovine serum albumin was contained), and added to the cell plate to reach a final concentration of 0.1% dimethyl sulfoxide.
(§3) The thus obtained mixture was incubated at room temperature for 1 hour. Thereafter, human OX-A and forskolin were dissolved in the same medium as described above, which contained fetal bovine serum albumin, and the medium was then added to the cells, resulting in a final concentration of 300 nM forskolin. Subsequently, the cells were cultured at 37° C. for approximately 18 to 24 hours.

For assay [4], the target named is T2, OX2. Nature of the assay: Measurement of antagonism (PLAP assay), OX2. Set-up: expressed in transfected cells; host or cells: HEK-293 cells, expression vector pBabeCLIH. In kind it is cell-based. The procedure: as §1, §2, §3
The test system of the next assay is mice (C57BL/6NCrlCrLj). The experiment in a line: Sleep experiment (EEG/EMG) in mice. The class given is in vivo. The procedure:
As a method for measuring the influence of the present compound on sleep time, electroencephalogram (EEG) and electromyogram (EMG) measurements were carried out in mice (C57BL/6NCrlCrLj).
In order to measure brain waves and muscle signals, EEG and EMG electrode implantation was performed on individual mice, and the mice were then housed in a state in which they could freely move and habituate in individual recording cages for 1 week or longer. Thereafter, amplified EEG and EMG signals were digitally recorded.
Mice received either oral administration of vehicle or test compound in vehicle, after which sleep/wake behavior of mice was recorded for 3 hours.
For sleep analysis, automatic analysis software from Kissei Comtec Co., Ltd. was used to analyze EEG frequency and EMG activity signals in detail and to determine sleep and wake states. Thereafter, accumulated sleeping time over 3 hours was calculated.
The effect of the compound to increase sleep time was evaluated as the difference between sleeping time on the vehicle-administration day and the sleep time on the subsequent drug-administration day.
The minimum effective dose (MED; mg/kg) was obtained from accumulated sleep time of mice with three hours after the administration.

The mark [5] stands for this setting: membranes of recombinant CHO cells expressing OX1, 0.2 nM [125I]-OX-A, read-out: OX1 (IC50).
The mark [6] stands for this setting: HEK-293 cells expressing human OX1, 1 nM human OX-A, IC50 converted by Cheng-Prusoff equation, read-out: OX1 (Ki).
Setting [7] is: HEK-293 cells expressing human OX2, 1 nM human OX-A, IC50 converted by Cheng-Prusoff equation, read-out: OX2 (Ki).
Where [8] appears, read: mice, oral administration, difference to vehicle day, 3 hours.

Broadly, the IC50 is the point on the concentration scale where inhibition reaches its midpoint. The term Ki denotes a dissociation constant, usually derived from enzyme kinetics or from competition with a known ligand.

Like-named read-outs stand apart in the source and are kept apart here.

As for `Cc1ncc(OC[C@@]2(c3ccccc3)C[C@H]2C(=O)Nc2ccc(F)c(C#N)c2)c(C)n1` [Example 26, (1R,2S)-N-(3-cyano-4-fluorophenyl)-2-{[(2,4-dimethylpyrimidin-5-yl)oxy]methyl}-2-phenylcyclopropanecarboxamide], the IC50 at OX1 [1] (setting [5]) stood at 20 nM; on OX2 [2] (read-out: OX2 (IC50)), 3.7 nM. Besides, the Ki at OX1 [3] (setting [6]) was 27 nM; at OX2 [4] (setting [7]) it was 0.4 nM.

Regarding `COc1cncc(NC(=O)[C@@H]2C[C@@]2(COc2cnc(C)nc2C)c2ccccc2)c1` [Example 61], the IC50 on OX1 [1] (setting [5]) is 874 nM; at OX2 [2] (read-out: OX2 (IC50)) it was 16 nM. The Ki at OX1 [3] (setting [6]) was more than 667 nM; at OX2 [4] (setting [7]) it was 26 nM.

Regarding `Cc1ncc(OC[C@@]2(c3ccccc3)C[C@H]2C(=O)Nc2ccccc2)c(C)n1` [Example 64], the IC50 on OX1 [1] (setting [5]) is 74 nM; on OX2 [2] (read-out: OX2 (IC50)) it was 15 nM. Also, the Ki amounted to 133 nM on OX1 [3] (setting [6]) and 6.3 nM at OX2 [4] (setting [7]).

With `Cc1ncc(OC[C@@]2(c3ccccc3)C[C@H]2C(=O)Nc2ccccn2)c(C)n1` [Example 65], the IC50 at OX1 [1] (setting [5]) was found to be 1030 nM; on OX2 [2] (OX2 (IC50) nM), 81 nM. Besides, the figures for the Ki on OX1 [3] (setting [6]) and on OX2 [4] were more than 667 nM and 60 nM, respectively.

As to `Cc1ncc(OC[C@@]2(c3ccccc3)C[C@H]2C(=O)Nc2cccnc2)c(C)n1` [Example 66], the IC50 at OX1 [1] (setting [5]) is 398 nM; at OX2 [2] (read-out: OX2 (IC50)) it was 50 nM. The values for the Ki at OX1 [3] (setting [6]) and at OX2 [4] (setting [7]) were more than 667 nM and 34 nM, respectively.

On to `Cc1ncc(OC[C@@]2(c3ccccc3)C[C@H]2C(=O)Nc2ccncc2)c(C)n1` [Example 67], for which the Ki at OX1 [3] is more than 667 nM; on OX2 [4], 57 nM.

Take `COc1cc(NC(=O)[C@@H]2C[C@@]2(COc2cnc(C)nc2C)c2ccccc2)ncc1F` [Example 73, (1R,2S)-2-{[(2,4-dimethylpyrimidin-5-yl)oxy]methyl}-N-(5-fluoro-4-methoxypyridin-2-yl)-2-phenylcyclopropanecarboxamide]: the “Sleep extended time 10 mg/kg (min/3 hrs)” value with mice (C57BL/6NCrlCrLj) (po, 3 h) was found to be 22.7 min/3 hrs. Also, the IC50 at OX1 [1] (setting [5]) was 3.4 nM; at OX2 [2] (read-out: OX2 (IC50)) it was 5.7 nM.

Take `Cc1ncc(OC[C@@]2(c3cccc(F)c3)C[C@H]2C(=O)Nc2ccc(F)cn2)c(C)n1` [Example 95, (1R,2S)-2-{[(2,4-dimethylpyrimidin-5-yl)oxy]methyl}-2-(3-fluorophenyl)-N-(5-fluoropyridin-2-yl)cyclopropanecarboxamide]: the “Sleep extended time 10 mg/kg (min/3 hrs)” value with mice (C57BL/6NCrlCrLj) (setting [8]) was 39.8 min/3 hrs. Further, in the assay on mice (C57BL/6NCrlCrLj) (mice, oral, doses 0.3 to 100 mg/kg, accumulated sleep time within three hours after administration), the “minimum effective dose (MED)” value is not above 1 mg/kg. Besides, on OX1 [1], the IC50 was determined as 13.4 nM. Affinity at OX1 [3] was put at a Ki of 9.9 nM.

Regarding `Cc1ncc(OC[C@@]2(c3cccc(F)c3)C[C@H]2C(=O)Nc2ccc(C#N)cn2)c(C)n1` [Example 96, (1R,2S)-N-(5-cyanopyridin-2-yl)-2-{[(2,4-dimethylpyrimidin-5-yl)oxy]methyl}-2-(3-fluorophenyl)cyclopropanecarboxamide], the “Sleep extended time 10 mg/kg (min/3 hrs)” value in the assay on mice (C57BL/6NCrlCrLj) (setting [8]) is recorded as 12.1 min/3 hrs. In addition, the IC50 at OX1 [1] was found to be 32 nM; on OX2 [2] (OX2 (IC50) nM), 5 nM.

As for `Cc1ncc(OC[C@@]2(c3ccc(F)cc3)C[C@H]2C(=O)Nc2ccc(F)cc2)c(C)n1` [Example 105, (1R,2S)-N,2-bis(4-fluorophenyl)-2-{[(2,4-dimethylpyrimidin-5-yl)oxy]methyl}-N,2-bis(4-fluorophenyl)cyclopropanecarboxamide], in the assay on mice (C57BL/6NCrlCrLj) (setting [8]), the “Sleep extended time 10 mg/kg (min/3 hrs)” value is reported as 14.3 min/3 hrs. Further, the results for the IC50 on OX1 [1] and on OX2 [2] (OX2 (IC50) nM) were 195 nM and 18 nM, respectively.

For `Cc1ncc(OC[C@@]2(c3cc(F)cc(F)c3)C[C@H]2C(=O)Nc2ccc(F)cc2)c(C)n1` [Example 130, (1R,2S)-2-(3,5-difluorophenyl)-2-{[(2,4-dimethylpyrimidin-5-yl)oxy]methyl}-N-(4-fluorophenyl)cyclopropanecarboxamide], in the assay on mice (C57BL/6NCrlCrLj) (po, 3 h), the “Sleep extended time 10 mg/kg (min/3 hrs)” value was 24.2 min/3 hrs. The IC50 on OX1 [1] (setting [5]) came to 22 nM; on OX2 [2] (read-out: OX2 (IC50)) it was 4 nM.

With `COCc1nc(C)ncc1OC[C@@]1(c2ccccc2)C[C@H]1C(=O)Nc1ccc(Cl)cn1` [Example 139, (1R,2S)-N-(5-chloropyridin-2-yl)-2-{[(4-(methoxymethyl)-2-methylpyrimidin-5-yl)oxy]methyl}-2-phenylcyclopropanecarboxamide], the IC50 was 22 nM on OX1 [1] (setting [5]) and 3.3 nM at OX2 [2] (read-out: OX2 (IC50)). Moreover, the Ki at OX1 [3] (setting [6]) worked out at 113 nM; on OX2 [4] (setting [7]) it was 1.7 nM.

Take `COCc1nc(C)ncc1OC[C@@]1(c2ccccc2)C[C@H]1C(=O)Nc1ccc(F)cn1` [Example 141, (1R,2S)-N-(5-fluoropyridin-2-yl)-2-{[(4-(methoxymethyl)-2-methylpyrimidin-5-yl)oxy]methyl}-2-phenylcyclopropanecarboxamide]: the “Sleep extended time 10 mg/kg (min/3 hrs)” value with mice (C57BL/6NCrlCrLj) (po, 3 h) is recorded as 28.7 min/3 hrs. Besides, the results for the IC50 at OX1 [1] (setting [5]) and at OX2 [2] (read-out: OX2 (IC50)) were 9 nM and 1.3 nM, respectively.

Regarding `COCc1nc(C)ncc1OC[C@@]1(c2cccc(F)c2)C[C@H]1C(=O)Nc1ccc(F)cn1` [Example 191, (1R,2S)-2-(3-fluorophenyl)-N-(5-fluoropyridin-2-yl)-2-[(4-methoxymethyl-2-methylpyrimidin-5-yl)oxymethyl]cyclopropanecarboxamide], the “Sleep extended time 10 mg/kg (min/3 hrs)” value in the assay on mice (C57BL/6NCrlCrLj) (setting [8]) came to 41.8 min/3 hrs. In addition, the IC50 at OX1 [1] and at OX2 [2] (OX2 (IC50) nM) was 1 nM throughout.

`COCc1nc(C)ncc1OC[C@@]1(c2cccc(F)c2)C[C@H]1C(=O)Nc1cc(C)c(F)cn1` [Example 199, (1R,2S)-N-(5-fluoro-4-methylpyridin-2-yl)-2-(3-fluorophenyl)-2-{[(4-methoxymethyl-2-methylpyrimidin-5-yl)oxy]methyl}cyclopropanecarboxamide]: in the assay with mice (C57BL/6NCrlCrLj) (po, 3 h), the “Sleep extended time 10 mg/kg (min/3 hrs)” value is recorded as 36.2 min/3 hrs. In addition, the IC50 on OX1 [1] (setting [5]) and on OX2 [2] (read-out: OX2 (IC50)) was 2 nM each time.

With `COc1cc(NC(=O)[C@@H]2C[C@@]2(COc2cnc(C)nc2C)c2ccccc2)cnc1F` [Example 327, (1R,2S)-2-{[(2,4-dimethylpyrimidin-5-yl)oxy]methyl}-N-(6-fluoro-5-methoxypyridin-3-yl)-2-phenylcyclopropanecarboxamide], the IC50 at OX1 [1] (setting [5]) is 192 nM; at OX2 [2] (read-out: OX2 (IC50)), 3 nM.

These data come from patent publication US8268848B2, “Cyclopropane compound” (Eisai R&D Management Co., Ltd., priority 2010, dated 2012).
